From the NIST ThermoML archive (doi:10.1021/acs.jced.8b01120)

Test: xn = mol fraction of the nth substance listed
Details: 100 kPa, Liquid; for speed of sound: Single path-length method; for mass density: Vibrating tube method

CCCCCOC(C)=O [pentyl ethanoate] + CCCCN(CCCC)CCCC
Details	mass density, 293.15 K [kg/m3]	mass density, 298.15 K [kg/m3]	mass density, 303.15 K [kg/m3]	mass density, 308.15 K [kg/m3]	mass density, 313.15 K [kg/m3]	speed of sound, 293.15 K [m/s]	speed of sound, 298.15 K [m/s]	speed of sound, 303.15 K [m/s]	speed of sound, 308.15 K [m/s]	speed of sound, 313.15 K [m/s]
x2 = 0	876.248	871.32	865.782	860.581	855.357	1243	1220.7	1196.8	1174.2	1152.3
x2 = 0.0575	865.692	860.668	855.073	849.94	844.475	1244.2	1221.5	1197.8	1175.7	1153.7
x2 = 0.1106	856.436	851.526	846.117	841.075	835.813	1245.2	1222.5	1198.8	1177.2	1155.7
x2 = 0.2013	842.712	837.942	832.841	827.884	823.003	1247.7	1224.3	1201.8	1179.7	1158.8
x2 = 0.3229	827.693	823.116	818.312	813.425	808.951	1249.6	1227.8	1205.4	1184.1	1163.1
x2 = 0.4109	818.21	813.799	809.136	804.737	800.073	1251.4	1229.9	1207.8	1187.2	1167.2
x2 = 0.5032	809.565	805.278	800.772	796.389	791.981	1253.8	1232.5	1210.5	1190.4	1170
x2 = 0.6202	799.842	795.692	791.362	787.138	782.852	1255.6	1235	1214.6	1194.1	1174.1
x2 = 0.7403	791.114	787.079	782.913	778.804	774.698	1258.8	1238.5	1217.8	1198.2	1178.9
x2 = 0.8105	786.994	782.989	778.908	774.712	770.827	1259.7	1240.2	1219.9	1201	1181.2
x2 = 0.9205	780.619	776.717	772.741	768.959	764.799	1262.4	1243.1	1223	1204.5	1185.6
